This note sets out measurements from publication PMC12518693, “Potent Fluorescent Probe for Target‐Engagement Studies of Allosteric Pyruvate Kinase Modulators” (Angewandte Chemie (International Ed. in English), 2025).

One data set deals with PKL (Homo sapiens, UniProt P30613). Briefly: HepG2 PKM2 KO cell lysate PKL activity assay. To be noted: HepG2 PKM2 KO cells, 48 h, mean ± SE n=3.
A further data set relates to HEK293 cells. The experiment in a line: Photostability in HEK293 cells under continuous 488 nm irradiation. To be noted: HEK293, 1 µM, 2 h, continuous 488 nm scanning 10 min. The format is cell-based. As for the experimental part:
Photostability of tracer IV was subsequently evaluated by treating HEK293 cells with the tracer (1 µM) for 2 h, followed by continuous scanning using 488 nm laser excitation for 10 min.
Figure S7. Photobleaching curve of compound IV (1 µM) in HEK293 cells under continuous laser irradiation. HEK293 cells were exposed to continuous excitation at 488 nm for 10 minutes using the same imaging settings as applied throughout this study. Integrated fluorescence intensity was recorded over time from an identical region of interest (ROI) across the time-lapse images to assess photostability.

PKL, sequence (P30613 1-543 isoform P30613-2): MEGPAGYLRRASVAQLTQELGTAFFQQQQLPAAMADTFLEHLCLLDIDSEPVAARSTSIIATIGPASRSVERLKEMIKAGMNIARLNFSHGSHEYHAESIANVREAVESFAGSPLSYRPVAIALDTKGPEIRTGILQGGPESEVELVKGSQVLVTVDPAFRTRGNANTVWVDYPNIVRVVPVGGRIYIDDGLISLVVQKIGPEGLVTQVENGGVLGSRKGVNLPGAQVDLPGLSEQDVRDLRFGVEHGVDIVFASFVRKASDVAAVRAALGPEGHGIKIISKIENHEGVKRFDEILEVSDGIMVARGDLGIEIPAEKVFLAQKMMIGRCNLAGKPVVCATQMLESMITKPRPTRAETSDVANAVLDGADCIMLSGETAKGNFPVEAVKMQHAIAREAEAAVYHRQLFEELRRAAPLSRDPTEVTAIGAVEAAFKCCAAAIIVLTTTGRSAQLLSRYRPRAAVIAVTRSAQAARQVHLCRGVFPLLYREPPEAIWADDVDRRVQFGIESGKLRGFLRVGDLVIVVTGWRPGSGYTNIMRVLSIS
Method for PKL: These predominantly express PKL.
HepG2 PKM2 KO cells (Synthego) were plated in 6 well plates at cell densities of 2 x 10^5 cells/well and incubated for 24 h at 37 °C and 5% CO2. Compounds were added to the cells in different concentrations (0.1, 1, 10 µM) and the cells were further incubated for 48 h. The control cells received DMSO as vehicle.
Cells were washed with PBS, lysed on ice with 200 µL/well PK assay buffer. […] Pyruvate kinase (PK) activity of the cell lysates (10 µg total protein) was analyzed by using the PK assay kit from abcam (ab83432) according to manufacturer´s instructions. The PKL activity in the cell lysates treated with the compounds was expressed as a percentage of the PK activity in the vehicle.

Regarding `CN(C)c1ccc(S(=O)(=O)c2ccc3c(=O)n(Cc4cc[nH]n4)ncc3c2)c2nonc12` [Compound IV, 2-((1H-Pyrazol-3-yl)methyl)-6-((7-(dimethylamino)benzo[c][1,2,5]oxadiazol-4-yl)sulfonyl)phthalazin-1(2H)-one], the “PKL activities (% of vehicle) 0.1 µM” value on PKL (0.1 µM) was 108 ± 3 % of vehicle. On PKL (1 µM), the “PKL activities (% of vehicle) 1 µM” value is given as 146 ± 4 % of vehicle. Besides, the “PKL activities (% of vehicle) 10 µM” value at PKL (10 µM) was 242 ± 7 % of vehicle. Further, the “decrease of fluorescence intensity” value with HEK293 cells is “approximately 6%”.
